According to ChEMBL document CHEMBL1201862, “PubChem BioAssay data set” (2004):
Active and inactive are the calls of the source.

Legend:
[1] = luciferase reporter signal suppression in cells – H4 neuroglioma cells, luminescence, dose response (AID 1990); assay type: functional, cell-based
[2] = Luminescence Cell-Based Dose Response HTS to Identify Inhibitors of 5'UTR Stem-Loop Driven Prion Protein mRNA Translation in H4 Neuroglioblastoma Cells. [Related pubchem assays: 1827 (Project Summary), 1813 (Primary HTS)]; assay type: functional
[3] = alpha-synuclein stem-loop luciferase translation blockers – H4 neuroglioma cells, luminescence, confirmation (AID 1988); assay type: functional, cell-based
[4] = molecular target: T1, Replicative DNA helicase DnaB (Mycobacterium tuberculosis, UniProt P9WMR3); assay: DnaB intein splicing inhibitors, dose response, biochemical, cell-free fluorescence (AID 449749); assay type: functional
T1 sequence (P9WMR3 whole entry): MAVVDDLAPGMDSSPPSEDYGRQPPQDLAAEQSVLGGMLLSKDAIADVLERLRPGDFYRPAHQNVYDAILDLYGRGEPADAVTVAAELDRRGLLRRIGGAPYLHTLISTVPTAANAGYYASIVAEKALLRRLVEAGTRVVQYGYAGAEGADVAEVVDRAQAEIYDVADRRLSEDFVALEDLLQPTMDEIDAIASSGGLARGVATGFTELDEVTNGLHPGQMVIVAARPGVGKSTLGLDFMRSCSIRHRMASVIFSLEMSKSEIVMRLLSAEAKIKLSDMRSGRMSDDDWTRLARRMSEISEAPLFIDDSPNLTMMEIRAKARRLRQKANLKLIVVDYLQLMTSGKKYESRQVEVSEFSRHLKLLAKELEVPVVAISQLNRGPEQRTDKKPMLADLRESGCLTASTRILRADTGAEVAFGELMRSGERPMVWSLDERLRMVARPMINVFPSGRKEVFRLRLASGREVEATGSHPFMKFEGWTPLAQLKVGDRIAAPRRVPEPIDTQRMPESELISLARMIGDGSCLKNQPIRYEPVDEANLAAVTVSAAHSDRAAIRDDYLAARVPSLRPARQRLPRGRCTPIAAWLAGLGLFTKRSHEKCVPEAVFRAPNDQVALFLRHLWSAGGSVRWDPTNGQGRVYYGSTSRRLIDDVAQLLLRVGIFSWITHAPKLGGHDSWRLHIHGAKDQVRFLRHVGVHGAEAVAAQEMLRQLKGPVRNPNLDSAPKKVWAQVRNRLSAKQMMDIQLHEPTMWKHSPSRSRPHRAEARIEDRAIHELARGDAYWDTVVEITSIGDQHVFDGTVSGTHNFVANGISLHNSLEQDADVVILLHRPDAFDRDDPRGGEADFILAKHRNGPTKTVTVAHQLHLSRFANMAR

[5] = molecular target: T2, Protein RecA (Mycobacterium tuberculosis, UniProt P9WHJ3); assay: Fluorescence Cell-Free Homogeneous Dose Retest to Identify Inhibitors of RecA-Intein Splicing Activity. [Related pubchem assays (depositor defined):AID2097, AID2223, AID489010, AID492950]; assay type: functional
T2 sequence (P9WHJ3 whole entry): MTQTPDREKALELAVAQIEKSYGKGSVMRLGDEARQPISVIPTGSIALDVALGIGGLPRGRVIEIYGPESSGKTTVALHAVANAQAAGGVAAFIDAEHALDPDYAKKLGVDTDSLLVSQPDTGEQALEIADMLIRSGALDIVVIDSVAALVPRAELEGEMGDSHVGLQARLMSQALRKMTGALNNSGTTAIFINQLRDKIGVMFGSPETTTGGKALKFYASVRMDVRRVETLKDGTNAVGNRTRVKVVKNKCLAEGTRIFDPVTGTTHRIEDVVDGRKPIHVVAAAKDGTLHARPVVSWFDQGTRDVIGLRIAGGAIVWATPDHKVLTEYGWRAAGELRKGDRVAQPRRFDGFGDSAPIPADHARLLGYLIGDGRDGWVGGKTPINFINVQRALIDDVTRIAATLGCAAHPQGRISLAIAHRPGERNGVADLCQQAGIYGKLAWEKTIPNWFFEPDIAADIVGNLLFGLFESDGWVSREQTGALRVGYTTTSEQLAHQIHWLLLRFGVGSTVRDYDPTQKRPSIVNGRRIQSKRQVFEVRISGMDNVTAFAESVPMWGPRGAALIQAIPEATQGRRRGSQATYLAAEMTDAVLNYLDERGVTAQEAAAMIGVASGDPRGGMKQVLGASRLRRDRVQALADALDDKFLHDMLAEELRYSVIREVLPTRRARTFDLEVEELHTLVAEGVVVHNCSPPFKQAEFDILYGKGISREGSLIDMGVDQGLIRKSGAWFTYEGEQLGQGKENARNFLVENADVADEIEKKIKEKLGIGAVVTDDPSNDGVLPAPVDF

[6] = molecular target: T3, Protein disulfide-isomerase (Homo sapiens, UniProt P07237); assay: inhibition of PDI-driven insulin aggregation – biochemical, turbidity, absorbance, cherry-picked samples, dose response (AID 602350); assay type: functional
[7] = molecular target: Protein disulfide-isomerase A6 (Homo sapiens, UniProt Q15084); assay: Secondary Assay for Selectivity of PDI Inhibitors (against ERp5) Measured in Biochemical System Using Plate Reader - 2137-04_Inhibitor_Dose_DryPowder_Activity_Set3.
[8] = loss of viability in embryonic kidney cells – cell-based, HEK293T, ATP luminescence, dry powder, cytotoxicity control, dose response (AID 652119); assay type: functional; conditions: HEK293
[9] = molecular target: T3, Protein disulfide-isomerase; assay: inhibition of PDI-mediated insulin reduction – biochemical, turbidity, dry powder samples, set 2, confirmation (AID 652146)
[10] = molecular target: Ribosomal protein S6 kinase alpha-3 (Homo sapiens, UniProt P51812); assay type: functional;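 note: measured within a kinome-wide profiling panel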
[11] = molecular target: Dual specificity protein kinase CLK2 (Homo sapiens, UniProt P49760); assay type: functional
[12] = molecular target: Dual specificity mitogen-activated protein kinase kinase 1 (Homo sapiens, UniProt Q02750); assay: Navigating the Kinome. Panel member name: MAP2K1; assay type: functional
[13] = molecular target: Tyrosine-protein kinase JAK2 (Homo sapiens, UniProt O60674); assay type: functional;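 note: JAK2 tested as one member of a kinase panel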
[14] = molecular target: Serine/threonine-protein kinase TBK1 (Homo sapiens, UniProt Q9UHD2); assay: Navigating the Kinome. Panel member name: TBK1; assay type: functional
[15] = molecular target: 5'-AMP-activated protein kinase catalytic subunit alpha-1 (Homo sapiens, UniProt Q13131); assay type: functional
[16] = molecular target: ALK tyrosine kinase receptor (Homo sapiens, UniProt Q9UM73); assay type: functional;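 note: ALK tested as one member of a kinase panel screen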
[17] = molecular target: Proto-oncogene tyrosine-protein kinase receptor Ret (Homo sapiens, UniProt P07949); assay type: functional;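 note: measured within a kinome-wide profiling panel, RET as the panel member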
[18] = molecular target: Tyrosine-protein kinase receptor TYRO3 (Homo sapiens, UniProt Q06418); assay type: functional;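 note: TYRO3 value obtained as one member of a kinome-wide profiling panel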
[19] = molecular target: Tyrosine-protein kinase Lck (Homo sapiens, UniProt P06239); assay type: functional;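 note: lck was assayed as one member of a kinase panel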
[20] = molecular target: Death-associated protein kinase 3 (Homo sapiens, UniProt O43293); assay type: functional;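 note: measured as one member of a kinome-wide profiling panel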
[21] = molecular target: Mitogen-activated protein kinase 8 (Homo sapiens, UniProt P45983); assay type: functional;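 note: value comes from one member of a kinome-wide kinase profiling panel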
[22] = molecular target: Serine/threonine-protein kinase pim-1 (Homo sapiens, UniProt P11309); assay type: functional
[23] = molecular target: Aurora kinase A (Homo sapiens, UniProt O14965); assay type: functional;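 note: value from the Navigating the Kinome kinase panel profiling, panel entry STK6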
[24] = molecular target: Serine/threonine-protein kinase PAK 4 (Homo sapiens, UniProt O96013); assay type: functional;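 note: value obtained within a kinome profiling panel in which PAK4 was one of the panel members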
[25] = molecular target: Fibroblast growth factor receptor 1 (Homo sapiens, UniProt P11362); assay type: functional
[26] = molecular target: Casein kinase I isoform alpha (Homo sapiens, UniProt P48729); assay type: functional
[27] = molecular target: Tyrosine-protein kinase JAK3 (Homo sapiens, UniProt P52333); assay type: functional
[28] = molecular target: Mitogen-activated protein kinase 9 (Homo sapiens, UniProt P45984); assay type: functional;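 note: value from a kinome panel profiling assay, MAPK9 panel entry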
[29] = molecular target: Serine/threonine-protein kinase TAO1 (Homo sapiens, UniProt Q7L7X3); assay type: functional
[30] = molecular target: MAP/microtubule affinity-regulating kinase 3 (Homo sapiens, UniProt P27448); assay type: functional;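 note: MARK3 affinity measured as one member of a kinome panel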
[31] = molecular target: Glycogen synthase kinase-3 alpha (Homo sapiens, UniProt P49840); assay type: functional;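 note: GSK3A result taken from a broad kinome-wide kinase panel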
[32] = molecular target: Mitogen-activated protein kinase kinase kinase kinase 2 (Homo sapiens, UniProt Q12851); assay type: functional;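 note: measured as one member of a kinome-wide kinase panel, with MAP4K2 as the panel entry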
[33] = molecular target: Receptor-type tyrosine-protein kinase FLT3 (Homo sapiens, UniProt P36888); assay type: functional;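 note: FLT3 was tested as one member of a kinome-wide kinase panel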
[34] = molecular target: Tyrosine-protein kinase ABL1 (Homo sapiens, UniProt P00519); assay type: functional
[35] = molecular target: Vascular endothelial growth factor receptor 2 (Homo sapiens, UniProt P35968); assay type: functional
[36] = molecular target: G protein-coupled receptor kinase 5 (Homo sapiens, UniProt P34947); assay: Navigating the Kinome. Panel member name: GPRK5; assay type: functional
[37] = molecular target: Insulin-like growth factor 1 receptor (Homo sapiens, UniProt P08069); assay: Navigating the Kinome. Panel member name: IGF1R; assay type: functional
[38] = molecular target: cAMP-dependent protein kinase catalytic subunit PRKX (Homo sapiens, UniProt P51817); assay type: functional
[39] = molecular target: Platelet-derived growth factor receptor alpha (Homo sapiens, UniProt P16234); assay: Navigating the Kinome. Panel member name: PDGFRA; assay type: functional
[40] = molecular target: Leucine-rich repeat serine/threonine-protein kinase 2 (Homo sapiens, UniProt Q5S007); assay type: functional;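 note: value from a broad kinome-wide panel profiling study in which LRRK2 was one of the kinases tested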
[41] = molecular target: Mitogen-activated protein kinase kinase kinase kinase 5 (Homo sapiens, UniProt Q9Y4K4); assay type: functional;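 note: measured as one member of a kinome-spanning kinase panel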
[42] = molecular target: Cyclin-dependent kinase 19 (Homo sapiens, UniProt Q9BWU1); assay: Navigating the Kinome. Panel member name: CDC2L6; assay type: functional
[43] = molecular target: Tyrosine-protein kinase Fyn (Homo sapiens, UniProt P06241); assay type: functional
[44] = molecular target: Cyclin-dependent kinase 8 (Homo sapiens, UniProt P49336); assay: Navigating the Kinome. Panel member name: CDK8; assay type: functional
[45] = molecular target: Vascular endothelial growth factor receptor 1 (Homo sapiens, UniProt P17948); assay type: functional;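 note: measured within a kinome-wide profiling panel, FLT1 as the panel member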
[46] = molecular target: Glycogen synthase kinase-3 beta (Homo sapiens, UniProt P49841); assay type: functional;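 note: value comes from a broad kinome profiling panel, with GSK3B as the panel member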
[47] = molecular target: Cyclin-dependent kinase 9 (Homo sapiens, UniProt P50750); assay type: functional;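 note: value from the CDK9 entry of a kinome-spanning kinase panel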
[48] = molecular target: cAMP-dependent protein kinase catalytic subunit alpha (Homo sapiens, UniProt P17612); assay type: functional
[49] = molecular target: Dual specificity protein kinase CLK4 (Homo sapiens, UniProt Q9HAZ1); assay type: functional
[50] = molecular target: Mitogen-activated protein kinase kinase kinase kinase 4 (Homo sapiens, UniProt O95819); assay type: functional
[51] = molecular target: Macrophage-stimulating protein receptor (Homo sapiens, UniProt Q04912); assay: Navigating the Kinome. Panel member name: MST1R; assay type: functional
[52] = molecular target: Macrophage colony-stimulating factor 1 receptor (Homo sapiens, UniProt P07333); assay type: functional;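 note: value comes from the Navigating the Kinome screening panel, CSF1R member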
[53] = molecular target: Dual specificity mitogen-activated protein kinase kinase 2 (Homo sapiens, UniProt P36507); assay: Navigating the Kinome. Panel member name: MAP2K2; assay type: functional
[54] = molecular target: Dual specificity tyrosine-phosphorylation-regulated kinase 1A (Homo sapiens, UniProt Q13627); assay type: functional;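 note: measured against DYRK1A as one member of a broad kinome profiling panel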
[55] = molecular target: Inhibitor of nuclear factor kappa-B kinase subunit epsilon (Homo sapiens, UniProt Q14164); assay: Navigating the Kinome. Panel member name: IKBKE; assay type: functional
[56] = molecular target: Calcium/calmodulin-dependent protein kinase type II subunit alpha (Homo sapiens, UniProt Q9UQM7); assay: Navigating the Kinome. Panel member name: CAMK2A; assay type: functional
[57] = molecular target: Leukocyte tyrosine kinase receptor (Homo sapiens, UniProt P29376); assay: Navigating the Kinome. Panel member name: LTK; assay type: functional
[58] = molecular target: Mitogen-activated protein kinase 14 (Homo sapiens, UniProt Q16539); assay type: functional;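 note: part of a kinome-wide panel, MAPK14 entry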
[59] = molecular target: Focal adhesion kinase 1 (Homo sapiens, UniProt Q05397); assay type: functional;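 note: measured as one member of a kinome panel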
[60] = molecular target: Aurora kinase B (Homo sapiens, UniProt Q96GD4); assay type: functional

Aurora kinase A, sequence (O14965 whole entry): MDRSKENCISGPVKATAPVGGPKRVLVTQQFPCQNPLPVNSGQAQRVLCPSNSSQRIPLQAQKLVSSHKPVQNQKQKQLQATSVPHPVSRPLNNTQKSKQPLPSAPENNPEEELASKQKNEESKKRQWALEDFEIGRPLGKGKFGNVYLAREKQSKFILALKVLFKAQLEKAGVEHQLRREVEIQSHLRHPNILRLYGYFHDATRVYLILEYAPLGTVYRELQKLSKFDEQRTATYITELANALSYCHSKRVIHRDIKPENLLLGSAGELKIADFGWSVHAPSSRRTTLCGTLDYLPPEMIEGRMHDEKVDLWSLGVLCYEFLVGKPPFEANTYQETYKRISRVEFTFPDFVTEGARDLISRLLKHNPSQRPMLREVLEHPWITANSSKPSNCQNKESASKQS
ALK tyrosine kinase receptor, sequence (Q9UM73 whole entry): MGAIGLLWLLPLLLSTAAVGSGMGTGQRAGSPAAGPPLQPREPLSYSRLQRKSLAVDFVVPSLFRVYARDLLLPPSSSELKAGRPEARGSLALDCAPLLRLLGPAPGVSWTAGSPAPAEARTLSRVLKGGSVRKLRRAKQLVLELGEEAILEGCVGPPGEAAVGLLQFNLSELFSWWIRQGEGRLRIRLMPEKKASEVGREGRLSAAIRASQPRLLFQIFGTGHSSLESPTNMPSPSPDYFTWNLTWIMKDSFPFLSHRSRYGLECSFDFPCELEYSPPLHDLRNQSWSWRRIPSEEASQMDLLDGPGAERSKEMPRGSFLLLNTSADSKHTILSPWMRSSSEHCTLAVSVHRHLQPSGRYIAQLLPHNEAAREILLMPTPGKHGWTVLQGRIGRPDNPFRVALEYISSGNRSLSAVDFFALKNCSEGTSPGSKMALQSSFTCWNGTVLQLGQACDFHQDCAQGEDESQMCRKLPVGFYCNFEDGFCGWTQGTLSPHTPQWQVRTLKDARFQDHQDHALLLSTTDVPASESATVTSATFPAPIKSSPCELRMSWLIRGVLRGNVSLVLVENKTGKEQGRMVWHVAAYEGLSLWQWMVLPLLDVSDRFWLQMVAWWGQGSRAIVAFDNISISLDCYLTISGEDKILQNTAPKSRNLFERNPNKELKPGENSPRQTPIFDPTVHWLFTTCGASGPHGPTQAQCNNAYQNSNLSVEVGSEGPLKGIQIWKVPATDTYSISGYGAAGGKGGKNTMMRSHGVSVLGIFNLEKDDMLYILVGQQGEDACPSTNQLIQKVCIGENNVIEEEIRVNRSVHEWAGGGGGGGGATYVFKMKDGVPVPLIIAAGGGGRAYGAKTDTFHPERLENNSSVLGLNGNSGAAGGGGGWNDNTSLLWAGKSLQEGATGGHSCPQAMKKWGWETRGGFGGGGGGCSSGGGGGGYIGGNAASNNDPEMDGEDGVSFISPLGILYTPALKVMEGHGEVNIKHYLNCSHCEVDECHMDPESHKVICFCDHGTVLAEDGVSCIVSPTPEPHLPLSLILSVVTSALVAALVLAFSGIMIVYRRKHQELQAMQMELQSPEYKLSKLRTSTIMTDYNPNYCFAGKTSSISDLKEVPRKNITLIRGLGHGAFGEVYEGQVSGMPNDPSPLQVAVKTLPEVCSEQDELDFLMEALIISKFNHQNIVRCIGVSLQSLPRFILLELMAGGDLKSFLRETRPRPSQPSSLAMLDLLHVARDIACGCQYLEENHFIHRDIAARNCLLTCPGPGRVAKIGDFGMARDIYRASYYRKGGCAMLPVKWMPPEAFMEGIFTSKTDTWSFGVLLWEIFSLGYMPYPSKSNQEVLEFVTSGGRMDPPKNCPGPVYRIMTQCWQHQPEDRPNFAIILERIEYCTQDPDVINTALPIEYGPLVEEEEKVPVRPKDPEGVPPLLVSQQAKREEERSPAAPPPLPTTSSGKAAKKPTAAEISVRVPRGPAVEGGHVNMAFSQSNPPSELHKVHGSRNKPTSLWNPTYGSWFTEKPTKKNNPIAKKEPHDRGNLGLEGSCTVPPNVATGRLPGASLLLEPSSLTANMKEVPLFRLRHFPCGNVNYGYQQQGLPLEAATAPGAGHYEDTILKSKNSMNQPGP
T3 sequence (P07237 whole entry): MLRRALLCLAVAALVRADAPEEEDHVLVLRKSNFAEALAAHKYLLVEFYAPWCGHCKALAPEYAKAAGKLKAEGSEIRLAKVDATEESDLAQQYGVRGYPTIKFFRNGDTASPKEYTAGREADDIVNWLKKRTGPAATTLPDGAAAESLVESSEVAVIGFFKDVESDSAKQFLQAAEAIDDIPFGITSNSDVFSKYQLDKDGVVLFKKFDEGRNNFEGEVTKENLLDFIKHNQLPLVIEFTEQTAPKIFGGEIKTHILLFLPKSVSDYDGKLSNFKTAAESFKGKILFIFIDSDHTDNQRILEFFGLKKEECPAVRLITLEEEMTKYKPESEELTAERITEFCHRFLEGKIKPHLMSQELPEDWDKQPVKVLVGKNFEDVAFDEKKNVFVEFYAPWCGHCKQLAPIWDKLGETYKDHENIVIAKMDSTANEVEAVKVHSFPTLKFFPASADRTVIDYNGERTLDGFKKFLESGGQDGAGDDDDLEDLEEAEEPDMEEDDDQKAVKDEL
Mitogen-activated protein kinase kinase kinase kinase 4, sequence (O95819 whole entry): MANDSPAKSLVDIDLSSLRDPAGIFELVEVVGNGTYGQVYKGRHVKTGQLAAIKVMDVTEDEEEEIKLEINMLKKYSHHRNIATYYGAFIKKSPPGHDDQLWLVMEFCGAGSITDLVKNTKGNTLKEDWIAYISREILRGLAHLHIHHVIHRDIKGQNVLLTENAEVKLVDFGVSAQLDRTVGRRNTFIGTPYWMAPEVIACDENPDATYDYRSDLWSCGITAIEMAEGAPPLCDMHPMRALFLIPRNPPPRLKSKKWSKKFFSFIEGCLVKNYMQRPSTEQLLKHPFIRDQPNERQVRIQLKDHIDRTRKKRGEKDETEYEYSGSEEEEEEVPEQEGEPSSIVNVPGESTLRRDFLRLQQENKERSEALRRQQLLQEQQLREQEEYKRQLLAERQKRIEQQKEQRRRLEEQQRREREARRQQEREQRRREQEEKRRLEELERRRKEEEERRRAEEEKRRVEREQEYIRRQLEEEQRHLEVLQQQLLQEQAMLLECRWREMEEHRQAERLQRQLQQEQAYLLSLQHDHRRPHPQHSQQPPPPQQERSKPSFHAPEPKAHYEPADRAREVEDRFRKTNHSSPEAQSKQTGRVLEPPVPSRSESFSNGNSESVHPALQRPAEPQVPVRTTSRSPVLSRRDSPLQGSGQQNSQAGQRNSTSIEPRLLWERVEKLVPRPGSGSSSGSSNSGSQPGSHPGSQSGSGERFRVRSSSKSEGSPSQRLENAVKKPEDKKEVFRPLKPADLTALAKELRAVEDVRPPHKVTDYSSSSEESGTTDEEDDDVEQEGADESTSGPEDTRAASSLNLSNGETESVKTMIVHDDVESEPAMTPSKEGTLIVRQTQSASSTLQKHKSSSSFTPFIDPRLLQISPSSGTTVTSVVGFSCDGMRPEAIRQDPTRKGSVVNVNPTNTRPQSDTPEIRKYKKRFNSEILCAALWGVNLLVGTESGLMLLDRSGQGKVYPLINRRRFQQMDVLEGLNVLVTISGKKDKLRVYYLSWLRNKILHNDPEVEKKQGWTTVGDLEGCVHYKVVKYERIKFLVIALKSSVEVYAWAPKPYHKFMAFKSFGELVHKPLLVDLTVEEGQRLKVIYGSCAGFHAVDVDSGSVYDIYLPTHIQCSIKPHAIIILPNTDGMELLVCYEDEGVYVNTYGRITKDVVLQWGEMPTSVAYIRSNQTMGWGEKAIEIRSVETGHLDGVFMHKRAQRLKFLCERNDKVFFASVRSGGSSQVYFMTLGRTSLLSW
Mitogen-activated protein kinase kinase kinase kinase 2, sequence (Q12851 whole entry): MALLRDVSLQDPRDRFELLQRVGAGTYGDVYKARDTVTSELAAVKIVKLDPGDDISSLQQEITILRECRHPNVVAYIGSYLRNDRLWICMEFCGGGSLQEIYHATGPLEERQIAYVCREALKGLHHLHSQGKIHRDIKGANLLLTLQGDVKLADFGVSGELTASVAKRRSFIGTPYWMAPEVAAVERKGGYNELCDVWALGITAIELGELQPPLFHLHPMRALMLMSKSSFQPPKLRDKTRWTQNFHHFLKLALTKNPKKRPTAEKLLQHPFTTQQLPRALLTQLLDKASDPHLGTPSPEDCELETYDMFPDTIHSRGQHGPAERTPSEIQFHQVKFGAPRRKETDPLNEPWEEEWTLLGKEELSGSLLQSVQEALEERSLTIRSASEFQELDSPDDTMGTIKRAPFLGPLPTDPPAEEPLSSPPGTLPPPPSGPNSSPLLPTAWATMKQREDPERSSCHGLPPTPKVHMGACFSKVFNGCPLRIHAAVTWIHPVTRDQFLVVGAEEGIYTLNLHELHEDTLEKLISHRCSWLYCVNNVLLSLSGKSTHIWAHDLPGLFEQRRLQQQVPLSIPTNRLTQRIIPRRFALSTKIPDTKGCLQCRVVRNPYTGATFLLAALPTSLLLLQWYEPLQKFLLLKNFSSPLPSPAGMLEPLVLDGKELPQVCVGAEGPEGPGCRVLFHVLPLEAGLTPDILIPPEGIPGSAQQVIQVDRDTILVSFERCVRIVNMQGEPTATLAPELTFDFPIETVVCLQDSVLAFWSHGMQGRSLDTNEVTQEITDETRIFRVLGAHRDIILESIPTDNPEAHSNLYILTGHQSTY
Cyclin-dependent kinase 9, sequence (P50750 whole entry): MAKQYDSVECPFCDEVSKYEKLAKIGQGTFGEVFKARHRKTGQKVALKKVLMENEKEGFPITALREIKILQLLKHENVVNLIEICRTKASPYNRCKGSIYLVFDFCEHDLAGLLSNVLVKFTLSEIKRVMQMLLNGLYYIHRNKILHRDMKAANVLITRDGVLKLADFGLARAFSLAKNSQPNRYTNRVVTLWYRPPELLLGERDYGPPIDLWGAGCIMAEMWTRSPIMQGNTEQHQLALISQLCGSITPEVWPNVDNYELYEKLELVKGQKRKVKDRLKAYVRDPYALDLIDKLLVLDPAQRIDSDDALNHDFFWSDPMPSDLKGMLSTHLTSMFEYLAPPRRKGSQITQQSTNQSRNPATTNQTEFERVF

CCOC(=O)C1(CCOc2ccccc2)CCN(Cc2ccc(O)c(Cl)c2)CC1
> 120 µM (not active): EC50 [1] | EC50 [2] | EC50 [3]
inactive: EC50 [5] > 380 µM | AC50 [7] 30 µM | AC50 [8] > 52 µM
active: AC50 [4] 99.6 µM | AC50 [6] 0.599 µM | AC50 [9] 2 µM

Cc1cc(O)nc2[nH]nc(-c3cccc(-c4ccc(Cl)cc4)c3)c12
inactive: Ki [10] > 3.98 µM | Ki [11] > 3.98 µM | Ki [12] > 3.16 µM | Ki [13] > 2.51 µM | Ki [14] > 3.16 µM | Ki [15] > 3.16 µM | Ki [16] > 6.31 µM | Ki [17] > 3.16 µM | Ki [18] > 3.16 µM | Ki [19] > 6.31 µM | Ki [20] > 5.01 µM | Ki [21] > 5.01 µM | Ki [22] > 6.31 µM | Ki [23] > 1.58 µM | Ki [25] > 3.98 µM | Ki [26] > 3.98 µM | Ki [27] > 5.01 µM | Ki [28] > 3.98 µM | Ki [29] > 6.31 µM | Ki [30] > 5.01 µM | Ki [31] > 3.98 µM | Ki [32] > 2.51 µM | Ki [33] > 3.16 µM | Ki [34] > 3.98 µM | Ki [35] > 2.51 µM | Ki [36] > 3.98 µM | Ki [37] > 2.51 µM | Ki [39] > 2.51 µM | Ki [40] > 2.51 µM | Ki [41] > 3.98 µM | Ki [42] > 100 µM | Ki [43] > 6.31 µM | Ki [44] > 3.98 µM | Ki [45] > 3.98 µM | Ki [46] > 3.98 µM | Ki [47] > 1.58 µM | Ki [48] > 1.26 µM | Ki [49] > 2.51 µM | Ki [50] > 5.01 µM | Ki [51] > 3.98 µM | Ki [52] > 2.51 µM | Ki [53] > 3.98 µM | Ki [54] > 2 µM | Ki [55] > 3.16 µM | Ki [56] > 7.94 µM | Ki [57] > 2.51 µM | Ki [58] > 3.98 µM
active: Ki [24] 1.58 µM | Ki [38] 0.00631 µM

Cc1cc(N2CCOCC2)cc2[nH]c(-c3c(NCCc4ccccc4)cc[nH]c3=O)nc12
inactive: Ki [59] > 1.58 µM
active: Ki [16] 0.126 µM | Ki [23] 0.794 µM | Ki [60] 0.1 µM
